Measurements reported in patent US10421774B2 (priority 2016, dated 2019).

Assays:
Experiment in all cases: microbe, parasite or virus in culture
Type in all cases: cell-based, HIV-1
[1] = test system: T332S/V362I/Pr R41G virus; conditions: Human immunodeficiency virus 1, MT2, read-out: T332S/V362I/pr41G EC50
Protocol: (§1) Cells. MT-2 cells and 293T cells were obtained from the NIH AIDS Research and Reference Reagent Program. Cell lines were sub-cultured twice a week in either RPMI 1640 (MT-2) or DMEM (293T, HeLa) media supplemented with 10% heat inactivated fetal bovine serum (FBS), 100 units/mL of penicillin G and 100 μg/mL of streptomycin. The DMEM medium was additionally supplemented with 10 mM HEPES buffer, pH 7.55, 2 mM L-glutamine and 0.25 μg/mL of amphotericin B.
(§2) Viruses. NLRepRluc virus contains the Renilla luciferase marker in place of the viral nef gene. The proviral plasmid pNLRepRluc was constructed at Bristol-Myers Squibb, starting from a proviral NL4-3 clone (B subtype) that was obtained from the NIH AIDS Research and Reference Reagent Program. The parental recombinant wild type (WT) virus (NLRepRlucP373S) was derived from NLRepRluc and contains the additional substitution of P373 for serine in Gag (within the SP1 spacer), the most common 373 variation in subtype B. Other recombinant viruses (A364V, V370A/ΔT371 and the “T3325 triple” (T332S/V362I+HIV-1 protease R41G)) were generated by site-directed mutagenesis of plasmid pNLRepRlucP373S to introduce those amino acid substitutions in Gag and protease. Recombinant virus DNA was then used to generate virus stocks by transfection of 293T cells (Lipofectamine PLUS kit, Invitrogen). Titers of virus stocks were determined using a luciferase assay (Dual-Luciferase® Reporter Assay System, Promega, Milwaukee, Wis., USA) endpoint.
(§3) Multiple cycle drug susceptibility assay. Pellets of MT-2 cells were infected with NLRepRlucP373S Gag site-directed viruses, where initial inocula of the reporter strains were normalized using equivalent endpoint luciferase activity signals. Such cell-virus mixtures were resuspended in medium, incubated for 1-hour at 37° C./CO2, and added to compound containing 96-well plates at a final cell density of 10,000 cells per well. The test compounds were 3-fold serially diluted in 100% DMSO, and assayed at a final DMSO concentration of 1%. After 4-5 day incubation at 37° C./CO2, virus yields were determined by Renilla luciferase activity (Dual-Luciferase® Reporter Assay System, Promega). The endpoint luminescence was detected on a Wallac Trilux (PerkinElmer).
T332sN362I/Pr R41G (N14.3, B Clade) virus′ was obtained as follows: Selection for resistance of HIV-1 strain […] virus with the HIV maturation inhibitor (MI) compound
At passage 8 virus was harvested and sequenced.
(§4) All three recombinant viruses were used as described above in the HIV cell culture assay for the NL4-3 virus.

[2] = test system: NLRepRlucP373S recombinant wild type (WT) virus; conditions: Human immunodeficiency virus 1, MT2, read-out: WT EC50
Protocol: as §1, §2, §3
(§5) The 50% inhibitory concentrations (EC50S) were calculated by using the exponential form of the median effect equation where Percent Inhibition=1/[1+(EC50/drug conc.^m], where m is a parameter that reflects the slope of the concentration-response curve. Background was taken as the residual signal observed upon inhibition at the highest concentration of a control protease inhibitor, NFV (3 μM).
as §5, with “The 90%” for “The 50%”, “concentrations (EC90S)” for “concentrations (EC50S)”, “where ECF=[(F/(100−F)]^1/H·EC50,” for “where Percent Inhibition=1/[1+(EC50/drug conc.^m],”, “where H” for “where m”

[3] = test system: A364V site directed mutant virus; conditions: Human immunodeficiency virus 1, MT2, read-out: A364V EC50
Protocol: as §1, §2, §3
(§6) HIV-1 NL4-3 expressing Renilla luciferase gene was converted to the gag V370A/ΔT371 virus by site directed mutagenesis. A364V is a site directed mutant.
as §4

[4] = test system: gag V370A/ΔT371 virus; conditions: Human immunodeficiency virus 1, MT2, read-out: V370A/ΔT371 EC50
Protocol: as §1, §2, §3, §6, §4

SMILES | EC50 [1] [nM] | EC50 [2] [nM] | EC50 [3] [nM] | EC50 [4] [nM]
C=C(C)[C@@H]1CC[C@]2(NCCN3CCS(=O)(=O)CC3)CC[C@]3(C)[C@H](CC[C@@H]4[C@@]5(C)CC=C(C6=CCC(COc7ccccn7)(C(=O)O)CC6)C(C)(C)[C@@H]5CC[C@]43C)[C@@H]12 (stereo partly shown) [Example 1] | 14 | 3 | 11 | 17
C=C(C)[C@@H]1CC[C@]2(NCCN3CCS(=O)(=O)CC3)CC[C@]3(C)[C@H](CC[C@@H]4[C@@]5(C)CC=C(C6=CCC(COc7cc(-c8ccccc8)nn7C)(C(=O)O)CC6)C(C)(C)[C@@H]5CC[C@]43C)[C@@H]12 (stereo partly drawn) [Example 2, 4-((1R,3aS,5aR,5bR,7aR,11aS,11bR,13aR,13bR)-3a-((2-(1,1-dioxidothiomorpholino)ethyl)amino)-5a,5b,8,8,11a-pentamethyl-1-(prop-1-en-2-yl)-2,3,3a,4,5,5a,5b,6,7,7a,8,11,11a,11b,12,13,13a,13b-octadecahydro-1H-cyclopenta[a]chrysen-9-yl)-1-(((1-methyl-3-phenyl-1H-pyrazol-5-yl)oxy)methyl)cyclohex-3-ene-1-carboxylic acid] | 3000 | 3000 | 1940 | 
C=C(C)[C@@H]1CC[C@]2(NCCN3CCS(=O)(=O)CC3)CC[C@]3(C)[C@H](CC[C@@H]4[C@@]5(C)CC=C(C6=CCC(COc7cc(C(F)(F)F)n(C)n7)(C(=O)O)CC6)C(C)(C)[C@@H]5CC[C@]43C)[C@@H]12 (stereo partly shown) [Example 3] | 2170 | 9 | 2220 | 
C=C(C)[C@@H]1CC[C@]2(NCCN3CCS(=O)(=O)CC3)CC[C@]3(C)[C@H](CC[C@@H]4[C@@]5(C)CC=C(C6=CCC(COc7nc(C(=O)O)cs7)(C(=O)O)CC6)C(C)(C)[C@@H]5CC[C@]43C)[C@@H]12 (stereo partly drawn) [Example 4, 2-((1-carboxy-4-((1R,3aS,5aR,5bR,7aR,11aS,11bR,13aR,13bR)-3a-((2-(1,1-dioxidothiomorpholino)ethyl)amino)-5a,5b,8,8,11a-pentamethyl-1-(prop-1-en-2-yl)-2,3,3a,4,5,5a,5b,6,7,7a,8,11,11a,11b,12,13,13a,13b-octadecahydro-1H-cyclopentatalchrysen-9-yl)cyclohex-3-en-1-yl)methoxy)thiazole-4-carboxylic acid] | > 50 | > 50 | > 50 | > 50
C=C(C)[C@@H]1CC[C@]2(NCCN3CCS(=O)(=O)CC3)CC[C@]3(C)[C@H](CC[C@@H]4[C@@]5(C)CC=C(C6=CCC(COc7nsnc7C)(C(=O)O)CC6)C(C)(C)[C@@H]5CC[C@]43C)[C@@H]12 (stereo partly drawn) [Example 5, 4-((1R,3aS,5aR,5bR,7aR,11aS,11bR,13aR,13bR)-3a-((2-(1,1-dioxidothiomorpholino)ethyl)amino)-5a,5b,8,8,11a-pentamethyl-1-(prop-1-en-2-yl)-2,3,3a,4,5,5a,5b,6,7,7a,8,11,11a,11b,12,13,13a,13b-octadecahydro-1H-cyclopenta[a]chrysen-9-yl)-1-(((4-methyl-1,2,5-thiadiazol-3-yl)oxy)methyl)cyclohex-3-ene-1-carboxylic acid] | 15 | 3 | 15 | 15
C=C(C)[C@@H]1CC[C@]2(NCCN3CCS(=O)(=O)CC3)CC[C@]3(C)[C@H](CC[C@@H]4[C@@]5(C)CC=C(C6=CCC(COc7cnsn7)(C(=O)O)CC6)C(C)(C)[C@@H]5CC[C@]43C)[C@@H]12 (stereo partly drawn) [Example 6, 1-(((1,2,5-thiadiazol-3-yl)oxy)methyl)-4-((1R,3aS,5aR,5bR,7aR,11aS,11bR,13aR,13bR)-3a-((2-(1,1-dioxidothiomorpholino)ethyl)amino)-5a,5b,8,8,11a-pentamethyl-1-(prop-1-en-2-yl)-2,3,3a,4,5,5a,5b,6,7,7a,8,11,11a,11b,12,13,13a,13b-octadecahydro-1H-cyclopenta[a]chrysen-9-yl)cyclohex-3-ene-1-carboxylic acid] | < 50 | < 50 | > 50 | < 50
C=C(C)[C@@H]1CC[C@]2(NCCN3CCS(=O)(=O)CC3)CC[C@]3(C)[C@H](CC[C@@H]4[C@@]5(C)CC=C(C6=CCC(COc7cnnn7CC)(C(=O)O)CC6)C(C)(C)[C@@H]5CC[C@]43C)[C@@H]12 (stereo partly shown) [Example 7] | 192 | 2 | 95 | 192
C=C(C)[C@@H]1CC[C@]2(NCCN3CCS(=O)(=O)CC3)CC[C@]3(C)[C@H](CC[C@@H]4[C@@]5(C)CC=C(C6=CCC(COc7nsc8ccccc78)(C(=O)O)CC6)C(C)(C)[C@@H]5CC[C@]43C)[C@@H]12 (stereo partly shown) [Example 8] | < 50 | < 50 | < 50 | < 50
C=C(C)[C@@H]1CC[C@]2(NCCN3CCS(=O)(=O)CC3)CC[C@]3(C)[C@H](CC[C@@H]4[C@@]5(C)CC=C(C6=CCC(COc7ccncc7)(C(=O)O)CC6)C(C)(C)[C@@H]5CC[C@]43C)[C@@H]12 (stereo partly drawn) [Example 9, 4-((1R,3aS,5aR,5bR,7aR,11aS,11bR,13aR,13bR)-3a-((2-(1,1-dioxidothiomorpholino)ethyl)amino)-5a,5b,8,8,11a-pentamethyl-1-(prop-1-en-2-yl)-2,3,3a,4,5,5a,5b,6,7,7a,8,11,11a,11b,12,13,13a,13b-octadecahydro-1H-cyclopenta[a]chrysen-9-yl)-1-((pyridin-4-yloxy)methyl)cyclohex-3-ene-1-carboxylic acid] | 14 | 2 | 35 | 
C=C(C)[C@@H]1CC[C@]2(NCCN3CCS(=O)(=O)CC3)CC[C@]3(C)[C@H](CC[C@@H]4[C@@]5(C)CC=C(C6=CCC(COc7cccnc7)(C(=O)O)CC6)C(C)(C)[C@@H]5CC[C@]43C)[C@@H]12 (stereo partly drawn) [Example 10, 4-((1R,3aS,5aR,5bR,7aR,11aS,11bR,13aR,13bR)-3a-((2-(1,1-dioxidothiomorpholino)ethyl)amino)-5a,5b,8,8,11a-pentamethyl-1-(prop-1-en-2-yl)-2,3,3a,4,5,5a,5b,6,7,7a,8,11,11a,11b,12,13,13a,13b-octadecahydro-1H-cyclopenta[a]chrysen-9-yl)-1-((pyridin-3-yloxy)methyl)cyclohex-3-enecarboxylic acid] | 6 | 2 | 27 | 
C=C(C)[C@@H]1CC[C@]2(NCCN3CCC(S(C)(=O)=O)CC3)CC[C@]3(C)[C@H](CC[C@@H]4[C@@]5(C)CC=C(C6=CCC(COc7cccnc7)(C(=O)O)CC6)C(C)(C)[C@@H]5CC[C@]43C)[C@@H]12 (stereo partly drawn) [Example 11, 4-((1R,3aS,5aR,5bR,7aR,11aS,11bR,13aR,13bR)-5a,5b,8,8,11a-pentamethyl-3a-((2-(4-(methylsulfonyl)piperidin-1-yl)ethyl)amino)-1-(prop-1-en-2-yl)-2,3,3a,4,5,5a,5b,6,7,7a,8,11,11a,11b,12,13,13a,13b-octadecahydro-1H-cyclopenta[a]chrysen-9-yl)-1-((pyridin-3-yloxy)methyl)cyclohex-3-enecarboxylic acid] | 8 | 2 | 18 | 
C=C(C)[C@@H]1CC[C@]2(NCCN3CCS(=O)(=O)CC3)CC[C@]3(C)[C@H](CC[C@@H]4[C@@]5(C)CC=C(C6=CCC(COc7cc(C)sn7)(C(=O)O)CC6)C(C)(C)[C@@H]5CC[C@]43C)[C@@H]12 (stereo partly shown) [Example 12] | < 50 | < 50 | < 50 | < 50
